Laboratory results from US4572908A, “Dihydropyridines” (Pfizer Inc., priority 1982, dated 1986).

Tested on: rat aorta
Assay: inhibition of calcium-induced contraction (change in tension) of spirally cut strips of rat aorta in K+ 45 mM saline
Format: cell-based
Details: 0.75 h, 45 millimolar potassium, 2 millimolar calcium, 45 minutes, read-out: IC50 (molar concentration required to reduce the response by 50%)
Description: The ability of the compounds to inhibit the movement of calcium into the cell is shown by their effectiveness in reducing the response of isolated heart tissue to an increase in calcium ion concentration in vitro. The test is performed by mounting spirally cut strips of rat aorta with one end fixed and the other attached to a force transducer. The tissue is immersed in a bath of physiological saline solution containing potassium ions at a concentration of 45 millimolar and no calcium. Calcium chloride is added to the bath with a pipette to give a final calcium ion concentration of 2 millimolar. The change in tension caused by the resulting contraction of the tissue is noted. The bath is drained and replaced with fresh saline solution and, after 45 minutes, the test is repeated with the particular compound under test present in the saline solution. The concentration of compound required to reduce the response by 50% (IC50) is recorded.
The molar concentrations of the compounds required to reduce the response by 50% in the test specified on pages 16-17 are given below (1M=1 gm.Mole/liter).

Row | Structure (SMILES) | IC50 [nM]
1 | CCOC(=O)C1=C(COCCNc2ccc(S(=O)(=O)N3CCN(C=O)CC3)cn2)NC(C)=C(C(=O)OC)C1c1ccccc1Cl (stereo not drawn) [Example 36] | 3.16
2 | CCOC(=O)C1=C(COCCNc2nccc(=O)[nH]2)NC(C)=C(C(=O)OC)C1c1cccc(Cl)c1Cl (stereo not drawn) [Example 39] | 2.69
3 | CCOC(=O)C1=C(COCCNc2nc3ccccc3s2)NC(C)=C(C(=O)OC)C1c1ccccc1Cl (stereo not drawn) [Example 19] | 10
4 | CCOC(=O)C1=C(COCCNC2=NC(C)(C)C(=O)N2)NC(C)=C(C(=O)OC)C1c1ccccc1Cl (stereo not drawn) [Example 23] | 100
5 | CCOC(=O)C1=C(COCCNc2cc(N3CCOCC3)ncn2)NC(C)=C(C(=O)OC)C1c1cccc(Cl)c1Cl (stereo not drawn) [Example 80, 4-(2,3-Dichlorophenyl)-3-ethoxycarbonyl-5-methoxycarbonyl-6-methyl-[2-(6-morpholinopyrimidin-4-ylamino)ethoxymethyl]-1,4-dihydropyridine] | 1.34
6 | CCOC(=O)C1=C(COCCNc2nc(C(C)=O)c[nH]2)NC(C)=C(C(=O)OC)C1c1cccc(Cl)c1Cl (stereo not drawn) [Example 91B, 2-[2-(4-acetylimidazol-2-ylamino)ethoxymethyl]-4-(2,3-dichlorophenyl)-3-ethoxycarbonyl-5-methoxycarbonyl-6-methyl-1,4-dihydropyridine] | 2.5
7 | CCOC(=O)C1=C(COCCNc2nc(C(=O)NC)cs2)NC(C)=C(C(=O)OC)C1c1ccccc1Cl (stereo not drawn) [Example 77, 4-(2-Chlorophenyl)-3-ethoxycarbonyl-5-methoxycarbonyl-6-methyl-2-[2-(4-[N-methylcarbamoyl]-thiazol-2-ylamino)ethoxymethyl]-1,4-dihydropyridine] | 5.37
8 | CCOC(=O)C1=C(COCCNc2ccc(C(N)=O)cn2)NC(C)=C(C(=O)OC)C1c1cccc(C(F)(F)F)c1Cl (stereo not drawn) [Example 63] | 2.95
9 | CCOC(=O)C1=C(COCCNc2nc(C)cc(=O)[nH]2)NC(C)=C(C(=O)OC)C1c1cccc(Cl)c1Cl (stereo not drawn) [Example 42] | 4.16
10 | CCOC(=O)C1=C(COCCNc2nnc(N)[nH]2)NC(C)=C(C(=O)OC)C1c1cccc(Cl)c1Cl (stereo not drawn) [Example 3B] | 6.02
11 | CCOC(=O)C1=C(COCCNc2nccnc2NC)NC(C)=C(C(=O)OC)C1c1cccc(Cl)c1Cl (stereo not drawn) [Example 84] | 5.01
12 | CCOC(=O)C1=C(COCCNc2cc(N3CCOCC3)ncn2)NC(C)=C(C(=O)OC)C1c1cccc(C(F)(F)F)c1Cl (stereo not drawn) [Example 88, 4-(2-Chloro-3-trifluoromethylphenyl)-3-ethoxycarbonyl-5-methoxycarbonyl-6-methyl-[2-(6-morpholino-pyrimidin-4-ylamino)ethoxymethyl]-1,4-dihydropyridin] | 0.126
13 | CCOC(=O)C1=C(COCCNc2noc(=O)[nH]2)NC(C)=C(C(=O)OC)C1c1cccc(Cl)c1Cl (stereo not drawn) [Example 78, 2-[2-(4,5-Dihydro-5-oxo-1,2,4-oxadiazol-3-ylamino)ethoxymethyl]-4-(2,3-dichlorophenyl)-3-ethoxycarbonyl-5-methoxycarbonyl-6-methyl-1,4-dihydropyridinemonohydrate] | 2.29
14 | CCOC(=O)C1=C(COCCNC2=NC(=O)CS2)NC(C)=C(C(=O)OC)C1c1cccc(C(F)(F)F)c1Cl (stereo not drawn) [Example 75] | 7.08
15 | CCOC(=O)C1=C(COCCNc2n[s+]([O-])nc2N)NC(C)=C(C(=O)OC)C1c1cccc(Cl)c1Cl (stereo not drawn) [Example 67, 3-{2-[(4-{2,3-Dichlorophenyl}-3-ethoxycarbonyl-5-methoxycarbonyl-6-methyl-1,4-dihydropyrid-2-yl)methoxy]ethylamino}-4-amino-1,2,5-thiadiazole-1-oxide hemihydrate] | 19.9
16 | CCOC(=O)C1=C(COCCNc2nc3ccccc3nc2Cl)NC(C)=C(C(=O)OC)C1c1cccc(Cl)c1Cl (stereo not drawn) [Example 49] | 3.98
17 | CCOC(=O)C1=C(COCCNc2n[nH]c(O)n2)NC(C)=C(C(=O)OC)C1c1cccc(Cl)c1Cl (stereo not drawn) [Example 90B, 4-(2,3-Dichlorophenyl)-3-ethoxycarbonyl-2-[2-(5-hydroxy-1H-1,2,4-triazol-3-ylamino)ethoxymethyl]-5-methoxycarbonyl-6-methyl-1,4-dihydropyridine hydrate] | 10

More lines, now with the values ahead:

Row | IC50 [nM] | Structure (SMILES)
18 | 100 | CCOC(=O)C1=C(COCCNC2=NCCN2)NC(C)=C(C(=O)OC)C1c1ccccc1Cl (stereo not drawn) [Example 21]
19 | 6.02 | CCOC(=O)C1=C(COCCNc2cncc(Cl)n2)NC(C)=C(C(=O)OC)C1c1cccc(Cl)c1Cl (stereo not drawn) [Example 52]
20 | 5.01 | CCOC(=O)C1=C(COCCNc2cc(N3CCCCC3)ncn2)NC(C)=C(C(=O)OC)C1c1ccccc1Cl (stereo not drawn) [Example 85]
21 | 17.7 | CCOC(=O)C1=C(COCCNc2cc(Cl)ncn2)NC(C)=C(C(=O)OC)C1c1ccccc1Cl (stereo not drawn) [Example 31]
22 | 0.776 | CCOC(=O)C1=C(COCCNc2cc(=O)[nH]cn2)NC(C)=C(C(=O)OC)C1c1cccc(Cl)c1Cl (stereo not drawn) [Example 41]
23 | 28.8 | CCOC(=O)C1=C(COCCNc2cc[nH]c(=O)n2)NC(C)=C(C(=O)OC)C1c1ccccc1Cl (stereo not drawn) [Example 12]
24 | 1.34 | CCOC(=O)C1=C(COCCNc2c[n+]([O-])ccn2)NC(C)=C(C(=O)OC)C1c1cccc(Cl)c1Cl (stereo not drawn) [Example 50, N-oxide of 4-(2,3-dichlorophenyl)-3-ethoxycarbonyl-5-methoxycarbonyl-6-methyl-2-[2-(pyrazin-2-ylamino)ethoxymethyl]-1,4-dihydropyridine]
25 | 10 | CCOC(=O)C1=C(COCCNc2cc(=O)[nH]cn2)NC(C)=C(C(=O)OC)C1c1ccccc1Cl (stereo not drawn) [Example 14]
26 | 39.8 | CCOC(=O)C1=C(COCCNc2nc(C)cs2)NC(C)=C(C(=O)OC)C1c1ccccc1Cl (stereo not drawn) [Example 72]
27 | 2.34 | CCOC(=O)C1=C(COCCNc2cc(=O)n(C)cn2)NC(C)=C(C(=O)OC)C1c1ccccc1Cl (stereo not drawn) [Example 30]
28 | 100 | CCOC(=O)C1=C(COCCNC2=NCCC2)NC(C)=C(C(=O)OC)C1c1ccccc1Cl (stereo not drawn) [Example 20]
29 | 18.2 | CCOC(=O)C1=C(COCCNc2ccc(C(N)=O)cn2)NC(C)=C(C(=O)OC)C1c1ccccc1Cl (stereo not drawn) [Example 22]
30 | 1.58 | CCOC(=O)C1=C(COCCNc2cc(N3CCOCC3)ncn2)NC(C)=C(C(=O)OC)C1c1ccccc1Cl (stereo not drawn) [Example 86]
31 | 3.16 | CCOC(=O)C1=C(COCCNc2cc(NC)ncn2)NC(C)=C(C(=O)OC)C1c1cccc(Cl)c1Cl (stereo not drawn) [Example 83]
32 | 13.1 | CCOC(=O)C1=C(COCCNc2nccc(C#N)n2)NC(C)=C(C(=O)OC)C1c1ccccc1Cl (stereo not drawn) [Example 28]
33 | 12.6 | CCOC(=O)C1=C(COCCNC2=NCC(=O)N2)NC(C)=C(C(=O)OC)C1c1ccccc1Cl (stereo not drawn) [Example 9]
